From patent US20250154112A1, “A PREPARATION OF QUINAZOLINEDIONES AND USE THEREOF” (COUNCIL OF SCIENTIFIC AND INDUSTRIAL RESEARCH AN INDIAN …, priority 2021, published 2025)
Values after ≈ are worked out from the molar mass of the structure shown.

Assays:
[1] = system: ubiquitination of ATGL by COP1; assay: Immunoprecipitation assay of ATGL ubiquitination status in HepG2 cells; type: cell-based; conditions: HepG2 cells overexpressing myc-ATGL, HA-Ubiquitin, 5 μM, MG-132, compared with control
Experimental: To this end, an immunoprecipitation assay was performed wherein HepG2 cells overexpressing myc-ATGL were transfected with HA-Ubiquitin and treated with 5 μM of the compounds 5, 62, and 94.MG-132, a proteasomal inhibitor, was added4 hours before harvesting the cells. Immune complexes were pulled down with anti-myc antibody and immunoblot was done using anti-HA antibody. The resultant smears on the blot reflect the ubiquitination status of ATGL.

[2] = system: ATGL; assay: Western blot of ATGL level in HepG2 cells after compound treatment; type: cell-based; conditions: 24 hours; for ATGL level (Western Blot): 50 nM to 5 μM dose dependent, with respect to control; for induction of ATGL (Western Blot): 5 μM
Experimental: (§1) HepG2 cells were treated with the compounds 5, 8, 11, 59, 62, 91, 94 (50 nM, 100 nM, 200 nM, 500 nM, 1 μM and 5 μM for dose dependent assays) for 24 hours. After removing media from the cells, the wells were washed with 1×PBS twice to remove any remnant media. Cells were then lysed in lysis buffer containing 50 mM Tris-HCl (pH 7.4), 100 mM NaCl, 1 mM EDTA, 1 mM EGTA, 1% Triton X-100 and protease inhibitor cocktail (Millipore, Billierica, MA, USA). Following centrifugation at 20,000 g for 20 minutes, the protein solution was extracted from the cells. Protein was estimated using Bradford assay. Bradford's reagent (BioRad) was diluted in 1:4 ratio in double distilled water. 2 μl of protein sample was added to 100 μl of the reagent and absorbance was measured at 595 nm. 30 μg of protein was diluted in lysis buffer. 1X loading buffer diluted from 5X stock containing 250 mM Tris-HCl (pH 6.8), 10% SDS, 50% glycerol, 0.1% bromophenol Blue and 10% β-mercaptoethanol was added. The protein samples were then heated at 95° C. for 10 minutes, cooled and centrifuged at 12,000 g for 2 minutes prior to loading.
For western blotting, the proteins were resolved in 10% SDS PAGE (discontinuous buffer system). 1X running buffer containing SDS, Tris Base and Glycine was used to run the gel at 80V for approximately 2 hours. Transfer was done using PVDF membrane (Millipore) having pore size of 0.45 μm. 1X transfer buffer containing Tris-Base, Glycine and 20% methanol was used for wet transfer. Transfer was done at 90V for 3 hours. Following transfer, the PVDF membrane containing the proteins were washed in 1×PBST comprising of 1×PBS and 1% Tween 20 (Sigma Aldrich). The membrane was then incubated for 1 hour at room temperature in 5% skim milk powder to block the non-specific sites. Following multiple washes with 1×PBST to wash away any remaining blocking buffer, the required primary antibody (COP1 [BethylLaboraties], ATGL [Cell Signalling Technology] or Actin[Cell Signalling Technology]) prepared with 1×PBST, 1% Bovine Serum Albumin and 0.04% Sodium Azide was added to the membrane and incubated overnight at 4° C. The next day, the membrane was again washed multiple times with 1×PBST to remove any unbound primary antibody. The membrane was then incubated with goat anti-rabbit secondary antibody (Genei) for 1 hour at room temperature and washed again for multiple times with 1×PBST. The membrane was then developed using Clarity™ ECL Western Blotting Substrate (BioRad) and viewed in ChemiDoc (BioRad).
as §1, with “62, 65,” for “62,”, “at” for “(50 nM, 100 nM, 200 nM, 500 nM, 1 μM and”, “μM” for “μM for dose dependent assays)”, “cocktail 1” for “cocktail”

[3] = Kinetic solubility; type: physicochemical; conditions: pH 7.4 phosphate buffer (PBS), aqueous buffer, kinetic from dmso stock, room temperature, 1.0% DMSO
Experimental: PBS sachet was dissolved in 0.9 L of Milli Q water and pH was adjusted to 7.4. Final volume was made up to 1 L with the water and stored at ambient temperature 21-25° C. […] 4 μL from the 50 mM stock solution were added to deep well plate containing 396 μL of pH 7.4 phosphate buffer, mixed and incubated for 24 hours at room temperature with constant mixing at 300 rpm. The plate was sealed well during the incubation process. After incubation, the samples were centrifuged for 20 min at 4000 rpm. The supernatant was analysed by HPLC-UV. The DMSO content in the sample was 1.0%. The final concentration of the compound in deep well plate was 500 μM.

[4] = Lipophilicity assay (octanol/buffer Log D); type: physicochemical; conditions: pH 7.4, n-octanol/sodium phosphate buffer
Experimental: 1.56 g NaH2PO4·2H2O was dissolved in 0.5 L water in a 1 L beaker. After adjusting pH to 7.4 using NaOH solution, the volume was made up to 1 L. Equal volumes of sodium phosphate buffer (10 mM, pH 7.4) and n-octanol were added to a separation funnel and mixed thoroughly by shaking and inverting the funnel several times. The two layers were allowed to separate for overnight and then dispensed in two separate glass bottles. 10 mM stock solution was prepared in 100% DMSO and stored at 4° C. 495 μL of organic phase (1-octanol) was added to each well of a 2 mL deep well plate, followed by 495 μL of buffer and 10 μL of test substance was added. The plate was incubated for 3 hrs at room temperature on a plate shaker at 500 rpm. After incubation, the samples were allowed to equilibrate for 20 min and then centrifuged at 4000 rpm for 30 min for complete phase separation and analysed by LC-UV. Log D=Log (area of octanol/area of buffer)

| SMILES | ubiquitination status of ATGL (poly-Ubiquitin smear) [1] | ATGL level (Western Blot) [2] | induction of ATGL (Western Blot) [2] | solubility kinetic at 24 hours [3] [µg/mL] | LogD @ pH 7.4 [4] | logD [4] |
| --- | --- | --- | --- | --- | --- | --- |
| COCCn1c(=O)c2cc(NC(=O)Nc3cccc(C(C)=O)c3)ccc2n(CCN2CCCCC2)c1=O [Compound 62, 1-(3-acetylphenyl)-3-(3-(2-methoxyethyl)-2,4-dioxo-1-(2-(piperidin-1-yl)ethyl)-1,2,3,4-tetrahydroquinazolin-6-yl)urea] | stark reduction in the ubiquitination smear | increased ATGL level | ability to induce ATGL | 116 (≈ 228 µM) | 2.78 |  |
| COCCn1c(=O)c2cc(NC(=O)Nc3cccc(C(C)=O)c3)ccc2n(CCCN2CCOCC2)c1=O [Compound 94, 1-(3-acetylphenyl)-3-(3-(2-methoxyethyl)-1-(3-morpholinopropyl)-2,4-dioxo-1,2,3,4-tetrahydroquinazolin-6-yl)urea] | no such effect | increased ATGL level | ability to induce ATGL | 89.9 (≈ 172 µM) |  | 0.97 |
| COCCn1c(=O)[nH]c2ccc(NC(=O)Nc3cccc(C(C)=O)c3)cc2c1=O [Compound 5, 1-(3-acetylphenyl)-3-(3-(2-methoxyethyl)-2,4-dioxo-1,2,3,4-tetrahydroquinazolin-6-yl)urea] | stark reduction in the ubiquitination smear | increased ATGL level | ability to induce ATGL | 0.8 (≈ 2.02 µM) | 2.17 |  |
